# Biological target: T1, human Keap1 kelch domain (amino acids Ala321-Thr609) (Homo sapiens, UniProt Q14145)
# T1 construct: human Keap1 kelch domain (amino acids Ala321-Thr609)
# Assay: Keap1-Nrf2 peptide binding assay (fluorescence polarisation)
# Conditions: not given
# Experimental: A fluorescence polarisation assay was used to measure binding of the human Keap1 kelch domain (amino acids Ala321-Thr609) to a fluorescently labeled peptide containing a Keap1 binding site of human Nrf2 (Alexa633-AFFAQLQLDEETGEFL; JPT Technologies, Berlin, Germany). Two microliters of test compound in reaction buffer (phosphate-buffered saline, 2 mM DL-dithiothreitol, 0.015 % (v/v) Brij-35) containing 6 % (v/v) DMSO were mixed with two microliters of the Keap1 kelch domain in reaction buffer in a black 384-well small volume microtiter plate and incubated at ambient temperature for 15 minutes. Thereafter, two microliters were added of the fluorescently labeled Nrf2 peptide in reaction buffer, and the mixture was incubated for a further 30 minutes at ambient temperature. Final concentrations of the Keap1 kelch domain and the fluorescently labeled Nrf2 peptide were 20 nM and 50 nM, respectively.
# Fluorescence polarization (FP) was measured at excitation and emission wavelengths of 635 nm and 660 nm, respectively. Positive controls for binding (two microliters of reaction buffer containing 6 % (v/v) DMSO instead of test compound in the same buffer) and negative controls (as positive controls, but without Keap1 kelch domain) were included on each microtiter plate. Data were expressed as percent-inhibition values: percentinhibition = 100⋅(1-(|FPcompound-FPnegative controle|)/(|FPpositive controle-FPnegative controle|)) [formula]
# IC50 values were determined by testing different compound concentrations and fitting the resulting percent-inhibition values to the following equation using XLFit4: percentinhibition = A + (B-A)/(1 + (((IC50)/([Compound])))^D) [formula]
# Parameter A was set to zero, pre-fit values for parameters B and D were set to 100 and 1, respectively.
# T1 sequence (Q14145 321-609): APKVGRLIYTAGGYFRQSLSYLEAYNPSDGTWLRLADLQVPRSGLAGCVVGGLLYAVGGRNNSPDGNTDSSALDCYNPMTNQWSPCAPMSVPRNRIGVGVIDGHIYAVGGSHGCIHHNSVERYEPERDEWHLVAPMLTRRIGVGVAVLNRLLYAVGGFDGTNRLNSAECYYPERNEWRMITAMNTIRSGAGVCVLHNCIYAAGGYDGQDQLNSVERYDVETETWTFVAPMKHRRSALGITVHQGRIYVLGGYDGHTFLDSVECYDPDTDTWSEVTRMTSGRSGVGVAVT
row,Compound,IC50 [µM]
1,"O=C1Cc2cc(S(=O)(=O)Nc3ccc(-c4cccc(C(=O)O)c4)c4ccccc34)ccc2N1 [Example 51, [4-[(2-oxoindolin-5-yl)sulfonylamino]-1-naphthyl]benzoic acid]",7.8

# Same assay, conditions: binding of Keap1 kelch domain (20 nM) to fluorescently labeled Nrf2 peptide (50 nM)
row,Compound,IC50 [µM]
1,"O=C(O)c1cccc(-c2ccc(NS(=O)(=O)c3ccc(Cl)c(C(F)(F)F)c3)c3ccccc23)c1 [Example 37, [4-[[4-chloro-3-(trifluoromethyl)phenyl]sulfonylamino]-1-naphthyl]benzoic acid]",4
2,"O=C(O)c1cccc(-c2ccc(NS(=O)(=O)c3ccc(OC(F)(F)F)c(Cl)c3)c3ccccc23)c1 [Example 38, 3-[4-[[3-chloro-4-(trifluoromethoxy)phenyl]sulfonylamino]-1-naphthyl]benzoic acid]",6.8
3,"O=C(O)c1cccc(-c2ccc(NS(=O)(=O)c3cc(Cl)c(F)cc3F)c3ccccc23)c1 [Example 40, 3-[4-[(5-chloro-2,4-difluorophenyl)sulfonylamino]-1-naphthyl]benzoic acid]",4.4
4,"Cc1ccc(Cl)cc1S(=O)(=O)Nc1ccc(-c2cccc(C(=O)O)c2)c2ccccc12 [Example 41, 3-[4-[(5-chloro-2-methylphenyl)sulfonylamino]-1-naphthyl]benzoic acid]",1.4
5,"O=C(O)c1cccc(-c2ccc(NS(=O)(=O)c3cc(F)cc(F)c3F)c3ccccc23)c1 [Example 42, 3-[4-[(2,3,5-trifluorophenyl)sulfonylamino]-1-naphthyl]benzoic acid]",6.4
6,"CN1CCOc2cc(S(=O)(=O)Nc3ccc(-c4cccc(C(=O)O)c4)c4ccccc34)ccc21 [Example 43, 3-[4-[(4-methyl-2,3-dihydro-1,4-benzoxazin-7-yl)sulfonylamino]-1-naphthyl]benzoic acid]",1.6
7,"O=C(O)c1cccc(-c2ccc(NS(=O)(=O)c3ccc4ncsc4c3)c3ccccc23)c1 [Example 44, 3-[4-(1,3-benzothiazol-6-ylsulfonylamino)-1-naphthyl]benzoic acid]",3.8
8,"Cc1c(Cl)cc(F)cc1S(=O)(=O)Nc1ccc(-c2cccc(C(=O)O)c2)c2ccccc12 [Example 46, 3-[4-[(3-chloro-5-fluoro-2-methylphenyl)sulfonylamino]-1-naphthyl]benzoic acid]",2.1
9,"Cc1cc(NC(=O)c2ccccc2)ccc1S(=O)(=O)Nc1ccc(-c2cccc(C(=O)O)c2)c2ccccc12 [Example 47, 3-[4-[(4-benzamido-2-methylphenyl)sulfonylamino]-1-naphthyl]benzoic acid]",5
10,"O=C(O)c1cccc(-c2ccc(NS(=O)(=O)c3cc(Cl)cc(Cl)c3)c3ccccc23)c1 [Example 48, 3-[4-[(3,5-dichlorophenyl)sulfonylamino]-1-naphthyl]benzoic acid]",2.3
11,"O=C(O)c1cccc(-c2ccc(NS(=O)(=O)c3cc(Cl)sc3Cl)c3ccccc23)c1 [Example 49, 3-[4-[(2,5-dichloro-3-thienyl)sulfonylamino]-1-naphthyl]benzoic acid]",1.7
12,"O=C(O)c1cccc(-c2ccc(NS(=O)(=O)c3c(Cl)cc(C(F)(F)F)cc3Cl)c3ccccc23)c1 [Example 52, 3-[4-[[2,6-dichloro-4-(trifluoromethyl)phenyl]sulfonylamino]-1-naphthyl]benzoic acid]",1.4
13,"Cc1ccc(C#N)c(S(=O)(=O)Nc2ccc(-c3cccc(C(=O)O)c3)c3ccccc23)c1 [Example 53, 3-[4-[(2-cyano-5-methylphenyl)sulfonylamino]-1-naphthyl]benzoic acid]",6.7
14,"O=C(O)c1cccc(-c2ccc(NS(=O)(=O)c3cc(Cl)ccc3Cl)c3ccccc23)c1 [Example 54, 3-[4-[(2,5-dichlorophenyl)sulfonylamino]-1-naphthyl]benzoic acid]",3.7
15,"Cc1cc(Cl)c(C)c(S(=O)(=O)Nc2ccc(-c3cccc(C(=O)O)c3)c3ccccc23)c1Cl [Example 57, 3-[4-[(2,5-dichloro-3,6-dimethylphenyl)sulfonylamino]-1-naphthyl]benzoic acid]",0.6
16,"O=C(O)c1ccc(F)c(-c2ccc(NS(=O)(=O)c3cccc(Cl)c3Cl)c3ccccc23)c1 [Example 74, 3-[4-[(2,3-dichlorophenyl)sulfonylamino]-1-naphthyl]-4-fluoro-benzoic acid]",0.9

# Same assay, conditions: binding of Keap1 kelch domain (20 nM) to fluorescently labeled Nrf2 peptide (50 nM); read-out: IC50
row,IC50 [µM],Compound
1,2.8,"Cc1nc(-c2ccccc2)sc1S(=O)(=O)Nc1ccc(-c2cccc(C(=O)O)c2)c2ccccc12 [Example 39, 3-[4-[(4-methyl-2-phenyl-thiazol-5-yl)sulfonylamino]-1-naphthyl]benzoic acid]"
2,2.5,"Cc1cc(NC(=O)N2CCOCC2)ccc1S(=O)(=O)Nc1ccc(-c2cccc(C(=O)O)c2)c2ccccc12 [Example 45, 3-[4-[[2-methyl-4-(morpholine-4-carbonylamino)phenyl]sulfonylamino]-1-naphthyl]benzoic acid]"
3,1.6,"Cc1nn(-c2ccccc2)c(C)c1S(=O)(=O)Nc1ccc(-c2cccc(C(=O)O)c2)c2ccccc12 [Example 50, 3-[4-[(3,5-dimethyl-1-phenyl-pyrazol-4-yl)sulfonylamino]-1-naphthyl]benzoic acid]"
4,4.3,"O=C(O)c1cccc(-c2ccc(NS(=O)(=O)c3ccc4c(c3)OCCO4)c3ccccc23)c1 [Example 55, 3-[4-(2,3-dihydro-1,4-benzodioxin-6-ylsulfonylamino)-1-naphthyl]benzoic acid]"
5,0.3,"Cc1nn(C)c(Cl)c1S(=O)(=O)Nc1ccc(-c2cc(C(=O)O)ccc2F)c2ccccc12 [Example 56, 3-[4-[(5-chloro-1,3-dimethyl-pyrazol-4-yl)sulfonylamino]-1-naphthyl]-4-fluorobenzoic acid]"
6,4.6,"Cc1cc(S(=O)(=O)Nc2ccc(-c3cccc(C(=O)O)c3)c3ccccc23)c(C)o1 [Example 58, 3-[4-[(2,5-dimethyl-3-furyl)sulfonylamino]-1-naphthyl]benzoic acid]"
7,46,"CCCCCCCCc1cc(-c2cccc(C(=O)O)c2)c2ccccc2c1NS(=O)(=O)c1c(C)c(C)cc(C)c1C [Example 59, 3-[3-octyl-4-[(2,3,5,6-tetramethylphenyl)sulfonylamino]-1-naphthyl]benzoic acid]"
8,0.9,"O=C(O)c1cccc(-c2ccc(NS(=O)(=O)c3c(Cl)nc4sccn34)c3ccccc23)c1 [Example 60, 3-[4-[(6-chloroimidazo[2,1-b]thiazol-5-yl)sulfonylamino]-1-naphthyl]benzoic acid]"
9,0.5,"Cc1ccc2c(NS(=O)(=O)c3c(C)c(C)cc(C)c3C)ccc(-c3cc(C(=O)O)ccc3F)c2n1 [Example 61, 4-fluoro-3-[2-methyl-5-[(2,3,5,6-tetramethylphenyl)sulfonylamino]-8-quinolyl]benzoic acid; 2,2,2-trifluoroacetic acid]"
10,0.7,"CCCCn1cc(S(=O)(=O)Nc2ccc(-c3cccc(C(=O)O)c3)c3ccccc23)c(C)n1 [Example 62, 3-[4-[(1-butyl-3-methyl-pyrazol-4-yl)sulfonylamino]-1-naphthyl]benzoic acid]"
11,3.2,"CCCn1ncc(S(=O)(=O)Nc2ccc(-c3cccc(C(=O)O)c3)c3ccccc23)c1C [Example 63, 3-[4-[(5-methyl-1-propyl-pyrazol-4-yl)sulfonylamino]-1-naphthyl]benzoic acid]"
12,4.5,"Cc1nn(CC(C)C)cc1S(=O)(=O)Nc1ccc(-c2cccc(C(=O)O)c2)c2ccccc12 [Example 64, 3-[4-[(1-isobutyl-3-methyl-pyrazol-4-yl)sulfonylamino]-1-naphthyl]benzoic acid]"
13,1.8,"Cc1c(S(=O)(=O)Nc2ccc(-c3cccc(C(=O)O)c3)c3ccccc23)cnn1C1CCCC1 [Example 67, 3-[4-[(1-cyclopentyl-5-methyl-pyrazol-4-yl)sulfonylamino]-1-naphthyl]benzoic acid]"
14,2.4,"Cc1c(S(=O)(=O)Nc2ccc(-c3cccc(C(=O)O)c3)c3ccccc23)cnn1CC(C)C [Example 68, 3-[4-[(1-isobutyl-5-methyl-pyrazol-4-yl)sulfonylamino]-1-naphthyl]benzoic acid]"
15,2.6,"CCCCn1cc(S(=O)(=O)Nc2ccc(-c3cc(C(=O)O)ccc3F)c3ccccc23)c(C)n1 [Example 70, 3-[4-[(1-butyl-3-methyl-pyrazol-4-yl)sulfonylamino]-1-naphthyl]-4-fluorobenzoic acid]"
16,22,"CCCCn1cc(S(=O)(=O)Nc2ccc(-c3cccc(C(=O)O)c3)c3nc(C)ccc23)c(C)n1 [Example 71, 3-[5-[(1-butyl-3-methyl-pyrazol-4-yl)sulfonylamino]-2-methyl-8-quinolyl]benzoic acid]"
17,1.4,"CCCn1ncc(S(=O)(=O)Nc2ccc(-c3cc(C(=O)O)ccc3F)c3ccccc23)c1C [Example 72, 4-fluoro-3-[4-[(5-methyl-1-propyl-pyrazol-4-yl)sulfonylamino]-1-naphthyl]benzoic acid]"
18,7.7,"Cc1ccc(S(=O)(=O)Nc2ccc(-c3cccc(C(=O)O)c3)c3ccccc23)c(Cl)n1 [Example 73, 3-[4-[(2-chloro-6-methyl-3-pyridyl)sulfonylamino]-1-naphthyl]benzoic acid]"

# From EP2998294A1, “Naphthyl sulfonamide phenyl derivatives as KEAP-1 modulators for the treatment of diabetes, obesity, dyslipidemia and related disorders” (SANOFI, priority 2014, dated 2016)
